Laboratory results published in patent US20200163984A1, “USE OF ISOVALERYL SPIRAMYCIN I, II AND/OR III IN MANUFACTURING MEDICAMENT FOR TREATING AND/OR PREVENTING TUMOR, AND MEDICAMENT” (SHENYANG FUYANG PHARMACEUTICAL TECHNOLOGY CO., LTD., priority 2017, published 2020).

Assays:
[1] = tested on: transplanted tumor of human breast cancer cell MDA-MB-231; experiment: MDA-MB-231 transplanted tumor in nude mice
Method: (§1) Then cell concentration was adjusted to 1×10^7/ml with matrigel, then each nude mouse was inoculated subcutaneously with 0.2 ml of cells at its right armpit and recorded as the first day of inoculation. When the tumor grows to be greater than or equal to 100 mm^3, the mice were randomly divided into 11 groups with 6 mice in each group: a model group, a cyclophosphamide group, isovaleryl spiramycin I groups with doses of 25, 50 and 100 mg/kg, isovaleryl spiramycin II groups with doses of 25, 50 and 100 mg/kg, and isovaleryl spiramycin III groups with doses of 25, 50 and 100 mg/kg. Each group was continuously administered intragastrically for 30 days with a dose of 20 ml/kg. The mice were sacrificed the next day after drug withdrawal and the indicators were tested. The long diameter and short diameter of the tumor, and the body weight of each mouse were recorded every 3 days from drug administration to nude mouse sacrifice.
(§2) The body weight of the nude mice and the long diameter (a) and short diameter (b) of the transplanted tumor were measured every 3 days, and the tumor volume (v), relative tumor volume (RTV) and relative tumor proliferation rate (T/C) are calculated respectively according to the following formulas, wherein V=a×b^2/2; RTV=V/V0 (V0 is the tumor volume before administration, V is the tumor volume before sacrifice), and T/C (%)=treatment group RTV/model control group RTV×100%.
(§3) Each mouse was weighed and sacrificed. After the tumor was completely stripped off from the body of the mouse, the non-tumor tissues such as blood stains and fat were removed to weigh the tumor and calculate the tumor growth inhibition rate. The average tumor weight of each group of mice is used as an indicator of efficacy. Tumor growth inhibition rate (%)=(1−the average tumor weight of the treatment group/the average tumor weight of the model group)×100%.

[2] = tested on: transplanted tumor of human glioma cell U251; experiment: U251 transplanted tumor in nude mice; conditions: for Tumor Volume (mm3) (d 1): d1
Method: as §1, with “U251 cells in a logarithmic growth phase were taken and subjected to a trypan blue exclusion experiment showing that the cell viability was more than 95%, then the cells were subjected to trypsinization, centrifugation, and supernatant removal. Then” for “Then”
as §2, §3

[3] = tested on: transplanted tumor of HL60 cells; experiment: HL-60 transplanted tumor in nude mice; conditions: for Tumor Volume (mm3) (d30): d 30
Method: as §1, with “HL-60 cells in a logarithmic growth phase were taken and subjected to a trypan blue exclusion experiment showing that the cell viability was more than 95%, then the cells were subjected to trypsinization, centrifugation, and supernatant removal. Then” for “Then”, “group:” for “group: a model group, a cyclophosphamide group,”, “the” for “the body”
as §2, §3

[4] = MDA-MB-231, 25 mg/kg (low dose) i.g. 30 days
[5] = MDA-MB-231, 50 mg/kg (medium dose) i.g. 30 days
[6] = MDA-MB-231, 100 mg/kg (high dose) i.g. 30 days
[7] = U251, high dose (100 mg/kg in method) i.g. 30 days
[8] = U251, low dose (25 mg/kg in method) i.g. 30 days
[9] = U251, medium dose (50 mg/kg in method) i.g. 30 days
[10] = HL-60, high dose (100 mg/kg in method) i.g. 30 days
[11] = HL-60, low dose (25 mg/kg in method) i.g. 30 days
[12] = HL-60, medium dose (50 mg/kg in method) i.g. 30 days

mouse weight compared with the model group ([1]; mouse, in vivo): no significant changes
mouse weight compared with the model group ([2]; mouse, in vivo): no significant changes
mouse weight compared with the model group ([3]; mouse, in vivo): no significant changes
Structure (SMILES): COC1C(OC(C)=O)CC(=O)OC(C)CC=CC=CC(OC2CCC(N(C)C)C(C)O2)C(C)CC(CC=O)C1OC1OC(C)C(OC2CC(C)(O)C(OC(=O)CC(C)C)C(C)O2)C(N(C)C)C1O (stereo not drawn) [Isovaleryl spiramycin II, isovaleryl spiramycin II]
Inhibition Rate (tumor growth inhibition rate) [1, 4]: 18.17%
Relative Tumor Proliferation Rate (T/C) [1, 4]: 80.22%
Relative Tumor Volume (RTV) [1, 4]: 12.53 ± 1.78
Tumor Volume (d 1) [1, 4]: 119.72 ± 6.52 mm3
Tumor Volume (d 30) [1, 4]: 1493.96 ± 171.49 mm3
Tumor Weight [1, 4]: 1.90 ± 0.31 g
Inhibition Rate (tumor growth inhibition rate) [1, 5]: 29.66%
Relative Tumor Proliferation Rate (T/C) [1, 5]: 58.78%
Relative Tumor Volume (RTV) [1, 5]: 9.18 ± 2.38
Tumor Volume (d 1) [1, 5]: 119.07 ± 3.19 mm3
Tumor Volume (d 30) [1, 5]: 1094.89 ± 291.37 mm3
Tumor Weight [1, 5]: 1.63 ± 0.32 g
Inhibition Rate (tumor growth inhibition rate) [1, 6]: 58.91%
Relative Tumor Proliferation Rate (T/C) [1, 6]: 30.89%
Relative Tumor Volume (RTV) [1, 6]: 6.08 ± 1.74
Tumor Volume (d 1) [1, 6]: 115.89 ± 9.01 mm3
Tumor Volume (d 30) [1, 6]: 700.44 ± 192.38 mm3
Tumor Weight [1, 6]: 0.95 ± 0.42 g
tumor volume and relative tumor volume compared with the model group ([1]; MDA-MB-231, low, medium and high doses, P<0.05): significantly lower
Relative Tumor Proliferation Rate (T/C) [2, 7]: 43.26%
tumor growth inhibition rate [2, 7]: 40.26%
Relative Tumor Proliferation Rate (T/C) [2, 8]: 76.14%
tumor growth inhibition rate [2, 8]: 10.91%
tumor volume and relative tumor volume compared with the model group ([2]; U251, low, medium and high doses, P<0.05): significantly lower
Relative Tumor Proliferation Rate (T/C) [2, 9]: 51.88%
tumor growth inhibition rate [2, 9]: 15.81%
Inhibition Rate (%) ([2]; U251 nude mice, 25 mg/kg): 10.91%
Relative Tumor Proliferation Rate (T/C) ([2]; U251 nude mice, 25 mg/kg): 76.14%
Relative Tumor Volume (RTV) ([2]; U251 nude mice, 25 mg/kg): 14.73 ± 1.33
Tumor Weight ([2]; U251 nude mice, 25 mg/kg): 1.23 ± 0.12 g
Tumor Volume (mm3) (d 1) ([2]; U251 nude mice, 25 mg/kg): 125.90 ± 11.45 mm3
Tumor Volume (mm3) (d30) ([2]; U251 nude mice, 25 mg/kg): 1596.45 ± 267.65 mm3
Inhibition Rate (%) ([2]; U251 nude mice, 50 mg/kg): 15.81%
Relative Tumor Proliferation Rate (T/C) ([2]; U251 nude mice, 50 mg/kg): 51.88%
Relative Tumor Volume (RTV) ([2]; U251 nude mice, 50 mg/kg): 14.31 ± 0.98
Tumor Weight ([2]; U251 nude mice, 50 mg/kg): 1.16 ± 0.10 g
Tumor Volume (mm3) (d 1) ([2]; U251 nude mice, 50 mg/kg): 118.33 ± 11.65 mm3
Tumor Volume (mm3) (d30) ([2]; U251 nude mice, 50 mg/kg): 1030.10 ± 207.19 mm3
Inhibition Rate (%) ([2]; U251 nude mice, 100 mg/kg): 40.26%
Relative Tumor Proliferation Rate (T/C) ([2]; U251 nude mice, 100 mg/kg): 43.26%
Relative Tumor Volume (RTV) ([2]; U251 nude mice, 100 mg/kg): 12.88 ± 1.54
Tumor Weight ([2]; U251 nude mice, 100 mg/kg): 0.83 ± 0.12 g
Tumor Volume (mm3) (d 1) ([2]; U251 nude mice, 100 mg/kg): 122.74 ± 10.75 mm3
Tumor Volume (mm3) (d30) ([2]; U251 nude mice, 100 mg/kg): 890.78 ± 225.34 mm3
Body Weight (g) (d1) ([2]; mouse, in vivo, 25 mg/kg): 20.77 ± 0.65 g
Body Weight (g) (d30) ([2]; mouse, in vivo, 25 mg/kg): 20.85 ± 0.79 g
Body Weight (g) (d1) ([2]; mouse, in vivo, 50 mg/kg): 21.25 ± 0.46 g
Body Weight (g) (d30) ([2]; mouse, in vivo, 50 mg/kg): 20.86 ± 0.43 g
Body Weight (g) (d1) ([2]; mouse, in vivo, 100 mg/kg): 20.92 ± 0.82 g
Body Weight (g) (d30) ([2]; mouse, in vivo, 100 mg/kg): 21.47 ± 0.70 g
Relative Tumor Proliferation Rate (T/C) [3, 10]: 41.36%
tumor growth inhibition rate [3, 10]: 51.81%
Relative Tumor Proliferation Rate (T/C) [3, 11]: 75.39%
tumor growth inhibition rate [3, 11]: 15.92%
tumor volume and relative tumor volume compared with the model group ([3]; HL-60, low, medium and high doses, P<0.05): significantly lower
Relative Tumor Proliferation Rate (T/C) [3, 12]: 65.18%
tumor growth inhibition rate [3, 12]: 29.48%
Inhibition Rate (%) ([3]; dose 25 mg/kg): 15.92%
Relative Tumor Proliferation Rate (T/C) ([3]; dose 25 mg/kg): 75.39%
Relative Tumor Volume (RTV) ([3]; dose 25 mg/kg): 8.48 ± 1.37
Tumor Weight ([3]; dose 25 mg/kg): 1.90 ± 0.33 g
Tumor Volume (mm3) (d 1) ([3]; dose 25 mg/kg): 189.51 ± 28.58 mm3
Tumor Volume (mm3) (d30) ([3]; dose 25 mg/kg): 1596.76 ± 293.76 mm3
Inhibition Rate (%) ([3]; dose 50 mg/kg): 29.48%
Relative Tumor Proliferation Rate (T/C) ([3]; dose 50 mg/kg): 65.18%
Relative Tumor Volume (RTV) ([3]; dose 50 mg/kg): 7.33 ± 2.36
Tumor Weight ([3]; dose 50 mg/kg): 1.60 ± 0.45 g
Tumor Volume (mm3) (d 1) ([3]; dose 50 mg/kg): 184.06 ± 32.38 mm3
Tumor Volume (mm3) (d30) ([3]; dose 50 mg/kg): 1344.04 ± 466.62 mm3
Inhibition Rate (%) ([3]; dose 100 mg/kg): 51.81%
Relative Tumor Proliferation Rate (T/C) ([3]; dose 100 mg/kg): 41.36%
Relative Tumor Volume (RTV) ([3]; dose 100 mg/kg): 4.65 ± 1.77
Tumor Weight ([3]; dose 100 mg/kg): 1.09 ± 0.34 g
Tumor Volume (mm3) (d 1) ([3]; dose 100 mg/kg): 184.80 ± 33.56 mm3
Tumor Volume (mm3) (d30) ([3]; dose 100 mg/kg): 834.34 ± 308.27 mm3
Body Weight (g) (d1) ([3]; mouse, in vivo, 25 mg/kg): 20.78 ± 1.31 g
Body Weight (g) (d30) ([3]; mouse, in vivo, 25 mg/kg): 20.59 ± 1.54 g
Body Weight (g) (d1) ([3]; mouse, in vivo, 50 mg/kg): 21.01 ± 1.20 g
Body Weight (g) (d30) ([3]; mouse, in vivo, 50 mg/kg): 20.72 ± 1.29 g
Body Weight (g) (d1) ([3]; mouse, in vivo, 100 mg/kg): 20.65 ± 1.27 g
Body Weight (g) (d30) ([3]; mouse, in vivo, 100 mg/kg): 20.32 ± 1.55 g
